Experimental data as given in US8895695B2, “Template-fixed beta-hairpin peptidomimetics with CXCR4 antagonizing activity” (priority 2003, dated 2014).
Square brackets hold non-standard residues; d marks the D form. Peptide text beside a SMILES is read from it. 2Nal = N[C@@H](Cc1ccc2ccccc2c1)C(=O)O; Cit = NC(=O)NCCC[C@H](N)C(=O)O

Columns and labels:
in vitro [1] = details: human; for CC50 at 48 h: HELA cells (Acc57)
CXCR4 [2] = biological target: T1, CXCR4 (Homo sapiens, UniProt P61073); experiment: Ca2+-assay method 1: CXCR4-antagonizing activity; format: cell-based; set-up: expressed in transfected cells; details: method 1 (Ex. 1-53), CXCR4 transfected pre-B cells, Fura-2; read-out: IC50 (nM) Ca^2+ assay
Experimental: 2.2. Ca^2+-Assay: CXCR4-Antagonizing Activity of the Peptides.
The cells were washed free from Fura-2-AM with a platelet centrifuge and resuspended in 800 μl MSB containing 5 mM D-Glucose. The peptides to be administered were diluted to a 100 fold end concentration in MSB/0.2% PPL, and 8 μl were injected. […] Measurements were done under continuous stirring at 37° C. The signal intension was calibrated with 3 mM CaCl2/[…] lonomycin (maximal fura-2-acetoxymethylester saturation) and 10 μM MnCl2 (minimal Fura-2-acetoxymethylester saturation) and [Ca^2+]i-changes are presented in % fora-2-acetoxymethylester saturation. The rate of [Ca^2+]i-changes was calculated on the basis of the initial [Ca^2+]i-changes and plotted in dependence of chemokine concentration to obtain a sigmoidal curve and to determine the IC50 values.
Osmolarity: 310 mOsm adjusted with NaOH or HCl, adjusted with H2O or PBS.
MSB plus: 5 mM D-glucose in MSB (50 mg/50 mL).
Fura 2-acetoxymethylester: 1 mM stock solution in dimethylsulfoxide.

[3] = system: human red blood cells (hRBC); experiment: Hemolysis; format: cell-based
Outline: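 Percent lysis taken as OD540 of peptide-treated sample over OD540 of the water/0.1% Triton X-100 full-lysis control, with PBS giving 0%. Peptides at 100 μM exposed to PBS-washed human RBCs (20% v/v) for 1 hour at 37° C. before centrifugation and 20-fold dilution of supernatant.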

in vitro [4] = format: in vitro ADME; details: plasma
Experimental: 405 μl of plasma/albumin solution were placed in a polypropylene (PP) tube and spiked with 45 μl of compound from a 100 μM solution B, derived from 135 μl of PBS and 15 μl of 1 mM peptide in PBS, pH 7.4. 150 μl aliquots were transferred into individual wells of the 10 kDa filter plate (Millipore MAPPB 1010 Biomax membrane). For “0 minutes controls”: 270 μl of PBS were placed in a PP tube and 30 μl of stock solution B was added and vortexed. 150 μl of control solution was placed into one well of the filter plate and serves as “filtered control”.
Further 150 μl of control solution were placed directly into a receiver well (reserved for filtrate) and serve as “not-filtered control”. The entire plate including evaporation lid was incubated for 60 min at 37° C. Plasma samples (rat plasma: Harlan Sera lab UK, human plasma: Blutspendezentrum Zürich) were centrifuged at least for 2 h at 4300 rpm (3500 g) and 15° C. in order to yield 100 μl filtrate. For “serum albumin”-samples (freshly prepared human albumin: Sigma A-4327, rat albumin: Sigma A-6272, all at 40 mg/ml concentration in PBS) approximately 1 hour of centrifugation is sufficient. The filtrates in the receiver PP plate were analysed by LC/MS as followes: Column: Jupiter C18 (Phenomenex), mobile phases: (A) 0.1% formic acid in water and (B) acetonitrile, gradient: 5%-100% (B) in 2 minutes, electrospray ionization, MRM detection (triple quadrupole). The peak areas were determined and triplicate values are averaged. The binding is expressed in percent of the (filtered and not-filtered time point 0 min) control 1 and 2 by: 100−(100*T60/T0). The average from these values is then calculated (see ref. 9 below).

CXCR4 [5] = biological target: T1, CXCR4; experiment: Ca2+-assay method 2 (Flexstation, SDF-1 induced calcium mobilization); format: cell-based; set-up: expressed in transfected cells; host or cells: mouse pre-B cell line 300-19; details: method 2 (Ex. 54-160), mouse pre-B cell line 300-19 with human CXCR4, 10 nM SDF-1; read-out: IC50 (nM) Ca^2+ assay
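Wherever CC50 is given: MTT reduction read as absorbance at 595 nm, blank-corrected and expressed as percent growth relative to the time-zero cell reading, triplicate wells per concentration.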
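Wherever GI50 is given: MTT reduction read as absorbance at 595 nm, blank-corrected and expressed as percent growth relative to the time-zero cell reading, triplicate wells per concentration.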

T1 sequence (P61073 whole entry): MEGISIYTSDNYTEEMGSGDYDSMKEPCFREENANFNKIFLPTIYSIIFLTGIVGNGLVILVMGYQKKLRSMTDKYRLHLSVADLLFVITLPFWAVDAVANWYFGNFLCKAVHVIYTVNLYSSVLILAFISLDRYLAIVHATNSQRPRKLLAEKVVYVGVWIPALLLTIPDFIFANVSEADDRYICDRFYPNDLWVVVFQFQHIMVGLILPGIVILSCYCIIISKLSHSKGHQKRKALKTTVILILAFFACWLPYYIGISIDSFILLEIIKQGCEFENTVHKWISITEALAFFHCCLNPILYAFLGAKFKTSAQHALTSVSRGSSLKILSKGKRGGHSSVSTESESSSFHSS

SMILES | CC50 at 48 h (in vitro [1]) [µM] | IC50 (CXCR4 [2]) [nM] | Hemolysis at 100 μM [3] [%] | GI50 at 48 h (in vitro [1]) [µM] | half-life at 10 μM (in vitro [4]; human) [h] | half-life at 10 μM (in vitro [4]; rat) [h] | IC50 (CXCR4 [5]) [nM]
CC(C)[C@@H]1NC(=O)[C@H](Cc2ccc3ccccc3c2)NC(=O)[C@H](CCCNC(=N)N)NC(=O)[C@H](CCCNC(=N)N)NC(=O)[C@@H]2CCCN2C(=O)[C@H](C(C)C)NC(=O)[C@H](CCCNC(=N)N)NC(=O)[C@H](Cc2ccccc2)NC(=O)[C@H](CCCNC(N)=O)NC(=O)[C@H](CCCNC(=N)N)NC(=O)[C@H](Cc2ccc(O)cc2)NC(=O)[C@@H]2CCCN2C(=O)[C@H]2CCCN2C(=O)[C@H](CCCCN)NC(=O)[C@H](CCCNC(N)=O)NC(=O)[C@H](Cc2ccc(O)cc2)NC1=O [compound 22] (cyclo(YR[Cit]FRVPRR[2Nal]VY[Cit]K[dP]P)) | 139 | 300 | 0 |  |  |  | 
N=C(N)NCCC[C@@H]1NC(=O)[C@H](Cc2ccccc2)NC(=O)[C@H](CCCNC(N)=O)NC(=O)[C@H](CCCNC(=N)N)NC(=O)[C@H](Cc2ccc(O)cc2)NC(=O)[C@@H]2CCCN2C(=O)[C@H]2CCCN2C(=O)[C@H](CCCCN)NC(=O)[C@H](CCCNC(N)=O)NC(=O)[C@H](Cc2ccc(O)cc2)NC(=O)[C@H](Cc2ccccc2)NC(=O)[C@H](Cc2ccc3ccccc3c2)NC(=O)[C@H](CCCNC(=N)N)NC(=O)[C@H](CCCNC(=N)N)NC(=O)[C@H]2CCCN2C(=O)CNC1=O [compound 38] (cyclo(YR[Cit]FRG[dP]RR[2Nal]FY[Cit]K[dP]P)) | 348 | 720 | 0.3 |  |  |  | 
CC(C)[C@@H]1NC(=O)[C@H](CCCNC(N)=O)NC(=O)[C@H](CCCNC(=N)N)NC(=O)[C@H](Cc2ccc(O)cc2)NC(=O)[C@@H]2CCCN2C(=O)[C@H]2CCCN2C(=O)[C@H](CCCCN)NC(=O)[C@H](CCCNC(N)=O)NC(=O)[C@H](Cc2ccc(O)cc2)NC(=O)[C@H](C(C)C)NC(=O)[C@H](Cc2ccc3ccccc3c2)NC(=O)[C@H](CCCNC(=N)N)NC(=O)[C@H](CCCNC(=N)N)NC(=O)[C@H](CCCNC(=N)N)NC1=O [Ex. 6] (cyclo(YR[Cit]VRRR[2Nal]VY[Cit]K[dP]P)) | 103 | 1930 | 0.6 |  |  |  | 
CC(C)[C@@H]1NC(=O)[C@H](CCCNC(N)=O)NC(=O)[C@H](CCCNC(=N)N)NC(=O)[C@H](Cc2ccc(O)cc2)NC(=O)[C@@H]2CCCN2C(=O)[C@H]2CCCN2C(=O)[C@H](CCCCN)NC(=O)[C@H](CCCNC(N)=O)NC(=O)[C@H](Cc2ccc(O)cc2)NC(=O)[C@H](Cc2ccccc2)NC(=O)[C@H](Cc2ccc3ccccc3c2)NC(=O)[C@H](CCCNC(=N)N)NC(=O)[C@H](CCCNC(=N)N)NC(=O)[C@H](CCCNC(=N)N)NC1=O [compound 4] (cyclo(YR[Cit]VRRR[2Nal]FY[Cit]K[dP]P)) | 191 | 2540 | 0.7 |  |  |  | 
CC(C)[C@@H]1NC(=O)[C@H](CCCNC(N)=O)NC(=O)[C@H](CCCNC(=N)N)NC(=O)[C@H](Cc2ccc(O)cc2)NC(=O)[C@@H]2CCCN2C(=O)[C@H]2CCCN2C(=O)[C@H](CCCCN)NC(=O)[C@H](CCCNC(N)=O)NC(=O)[C@H](Cc2ccc(O)cc2)NC(=O)[C@H](Cc2ccccc2)NC(=O)[C@H](Cc2ccc3ccccc3c2)NC(=O)[C@H](CCCNC(=N)N)NC(=O)[C@H](CCCNC(=N)N)NC(=O)[C@H]2CCCN2C(=O)[C@H](C(C)C)NC(=O)[C@H](CCCNC(=N)N)NC1=O [compound 32] (cyclo(YR[Cit]VRV[dP]RR[2Nal]FY[Cit]K[dP]P)) | 85 | 760 | 0.5 |  |  |  | 
N=C(N)NCCC[C@@H]1NC(=O)[C@H](CCCNC(=N)N)NC(=O)[C@H](Cc2ccccc2)NC(=O)[C@H](CCCNC(N)=O)NC(=O)[C@H](CCCNC(=N)N)NC(=O)[C@H](Cc2ccc(O)cc2)NC(=O)[C@@H]2CCCN2C(=O)[C@H]2CCCN2C(=O)[C@H](CCCCN)NC(=O)[C@H](CCCNC(N)=O)NC(=O)[C@H](Cc2ccc(O)cc2)NC(=O)[C@H](Cc2ccccc2)NC(=O)[C@H](Cc2ccc3ccccc3c2)NC(=O)[C@H](CCCNC(=N)N)NC1=O [compound 3] (cyclo(YR[Cit]FRRR[2Nal]FY[Cit]K[dP]P)) | 126 | 1000 | 1.7 |  |  |  | 
CC(C)[C@@H]1NC(=O)[C@H](CCCNC(N)=O)NC(=O)[C@H](CCCNC(=N)N)NC(=O)[C@H](Cc2ccc(O)cc2)NC(=O)[C@@H]2CCCN2C(=O)[C@H]2CCCN2C(=O)[C@H](CCCCN)NC(=O)[C@H](CCCNC(N)=O)NC(=O)[C@H](Cc2ccc(O)cc2)NC(=O)[C@H](Cc2ccccc2)NC(=O)[C@H](Cc2ccc3ccccc3c2)NC(=O)[C@H](CCCNC(=N)N)NC(=O)[C@@H](CCCNC(=N)N)NC(=O)[C@H](CCCNC(=N)N)NC1=O [Ex. 1] (cyclo(YR[Cit]VR[dR]R[2Nal]FY[Cit]K[dP]P)) | 82 | 2280 | 1.6 |  |  |  | 
CC(C)[C@@H]1NC(=O)[C@H](Cc2ccc3ccccc3c2)NC(=O)[C@H](CCCNC(=N)N)NC(=O)[C@H](CCCNC(=N)N)NC(=O)[C@H]2CCCN2C(=O)[C@H](CCCNC(N)=O)NC(=O)[C@H](CCCNC(=N)N)NC(=O)[C@H](C(C)C)NC(=O)[C@H](CCCNC(N)=O)NC(=O)[C@H](CCCNC(=N)N)NC(=O)[C@H](Cc2ccc(O)cc2)NC(=O)[C@@H]2CCCN2C(=O)[C@H]2CCCN2C(=O)[C@H](CCCCN)NC(=O)[C@H](CCCNC(N)=O)NC(=O)[C@H](Cc2ccc(O)cc2)NC1=O [compound 25] (cyclo(YR[Cit]VR[Cit][dP]RR[2Nal]VY[Cit]K[dP]P)) | 108 | 1000 | 0 |  |  |  | 
CC(C)[C@@H]1NC(=O)[C@H](Cc2ccc3ccccc3c2)NC(=O)[C@H](CCCNC(=N)N)NC(=O)[C@H](CCCNC(=N)N)NC(=O)[C@@H]2CCCN2C(=O)[C@H](Cc2ccccc2)NC(=O)[C@H](CCCNC(=N)N)NC(=O)[C@H](Cc2ccccc2)NC(=O)[C@H](CCCNC(N)=O)NC(=O)[C@H](CCCNC(=N)N)NC(=O)[C@H](Cc2ccc(O)cc2)NC(=O)[C@@H]2CCCN2C(=O)[C@H]2CCCN2C(=O)[C@H](CCCCN)NC(=O)[C@H](CCCNC(N)=O)NC(=O)[C@H](Cc2ccc(O)cc2)NC1=O [compound 24] (cyclo(YR[Cit]FRFPRR[2Nal]VY[Cit]K[dP]P)) | 108 | 850 | 0.7 |  |  |  | 
CC(C)[C@@H]1NC(=O)[C@H](Cc2ccc3ccccc3c2)NC(=O)[C@H](CCCNC(=N)N)NC(=O)[C@H](CCCNC(=N)N)NC(=O)[C@H]2CCCN2C(=O)[C@H](C(C)C)NC(=O)[C@H](CCCNC(=N)N)NC(=O)[C@H](Cc2ccccc2)NC(=O)[C@H](CCCNC(N)=O)NC(=O)[C@H](CCCNC(=N)N)NC(=O)[C@H](Cc2ccc(O)cc2)NC(=O)[C@@H]2CCCN2C(=O)[C@H]2CCCN2C(=O)[C@H](CCCCN)NC(=O)[C@H](CCCNC(N)=O)NC(=O)[C@H](Cc2ccc(O)cc2)NC1=O [compound 21] (cyclo(YR[Cit]FRV[dP]RR[2Nal]VY[Cit]K[dP]P)) | 114 | 550 | 0.6 |  |  |  | 
N=C(N)NCCC[C@@H]1NC(=O)[C@H](CO)NC(=O)[C@H](CCCNC(N)=O)NC(=O)[C@H](CCCNC(=N)N)NC(=O)[C@H](Cc2ccc(O)cc2)NC(=O)[C@@H]2CCCN2C(=O)[C@H]2CCCN2C(=O)[C@H](CCCCN)NC(=O)[C@H](CCCNC(N)=O)NC(=O)[C@H](Cc2ccc(O)cc2)NC(=O)[C@H](CC(N)=O)NC(=O)[C@H](Cc2c[nH]c3ccccc23)NC(=O)[C@H](CCCNC(=N)N)NC(=O)[C@H](CCCNC(=N)N)NC(=O)[C@H]2CCCN2C(=O)CNC1=O [Ex. 151] (cyclo(YR[Cit]SRG[dP]RRWNY[Cit]K[dP]P)) |  |  | 0.9 | 83 | 1.48 | 1.18 | 4.2
